Laboratory results from US20240279232A1, “USE OF SUBSTITUTED 5-(4-METHYL-6-PHENYL-4H-BENZO[F]IMIDAZO[1,5-A][1,4] DIAZEPIN-3-YL)-1,2,4-O[…] THE TREATMENT OF INFLAMMATORY CONDITIONS” (priority 2021, published 2024).

What was measured:
[1] = tested on: RAW macrophages; experiment: NO production (Griess assay), LPS/IFNγ-activated RAW264.7 macrophages; format: cell-based, mouse; details: for Inhibition of NO production (%) RAW macrophages 10 μM: 24 hours, 1 μM GABA, LPS/IFNγ
[2] = tested on: HEPG2; experiment: Viability assay (CellTiter-Glo), HEPG2; format: cell-based, human; details: for Cell viability (%) HEPG2 120 μM: CellTiter-Glo
Experimental: (§1) The screen identified several compounds that reduced NO in activated microglia and macrophages. The tested compounds included achiral and chiral imidazodiazepines and benzodiazepines. In general, microglia were more sensitive to compound treatment with more pronounced reduction of NO than macrophages. […] Cell viability assays with HEK293 (kidney) and HepG2 (liver) cells were conducted in a concentration dependent manner. A limited number of compounds, such as GL-III-63, GL-III-76A, and GL-III-77, were toxic at 120 μM.
(§2) Viability assay. Human liver hepatocellular carcinoma (HEPG2) and human embryonic kidney 293T (HEK293T) cell lines were purchased (ATCC) and cultured in 75 cm^2 flasks (CellStar). Cells were grown in DMEM/High Glucose (Hyclone, #SH3024301) media to which non-essential amino acids (Hyclone, #SH30238.01), 10 mM HEPES (Hyclone, #SH302237.01), 5×10^6 units of penicillin and streptomycin (Hyclone, #SV30010), and 10% of heat inactivated fetal bovine serum (Gibco, #10082147) were added. Cells were harvested using 0.05% Trypsin (Hyclone, #SH3023601), washed with PBS, and dispensed into sterile white, optical bottom 384-well plates (NUNC, #142762). After three hours, small molecule DMSO solutions were transferred with a Tecan Freedom EVO liquid handling system equipped with a 100 nL pin tool (V&P Scientific). The controls were 3-dibutylamino-1-(4-hexyl-phenyl)-propan-1-one (25 mM in DMSO, positive control) and DMSO (negative control). The cells were incubated for 48 hours followed by the addition of CellTiter-Glo™, a luminescence-based cell viability assay (Promega, Madison, WI). All luminescence readings were performed on a Tecan Infinite M1000 plate reader. The assay was carried out in quadruplet with two independent runs. The data were analyzed by nonlinear regression.

[3] = tested on: RAW macrophages; experiment: Cell viability (CellTiter-Glo), RAW macrophages; format: cell-based, mouse; details: CellTiter-Glo
[4] = tested on: Mouse microglia; experiment: Cell viability (CellTiter-Glo), mouse microglia; format: cell-based; details: 50 μM, CellTiter-Glo
Procedure, shortened: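 Mouse microglia (1×10^6 cells/mL) activated with 50 ng/ml LPS plus 150 U/mL IFNγ, incubated with compounds ~24 h at 37° C. Viability of remaining cells read by CellTiter-Glo luminescence after supernatant removal for Griess NO assay; […].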

[5] = tested on: HEK293; experiment: Viability assay (CellTiter-Glo), HEK293; format: cell-based, human; details: for Cell viability (%) HEK293 120 μM: CellTiter-Glo
Experimental: as §1, §2

[6] = tested on: Mouse microglia; experiment: NO production (Griess assay), LPS/IFNγ-activated mouse microglia; format: cell-based; details: for Inhibition of NO production (%) Mouse microglia 10 μM: 24 hours, 1 μM GABA, LPS/IFNγ

## CC1N=C(c2ccccc2F)c2cc(Br)ccc2-n2cnc(-c3cnco3)c21 (racemic) [GL-III-76A]
[1]
  Inhibition of NO production (%) RAW macrophages 10 μM: 6 ± 3%
[2]
  Cell viability (%) HEPG2 120 μM: 0 ± 2%
[2]; HepG2, 120 μM
  toxicity at 120 μM (in words): toxic
[3]
  Cell viability (%) RAW macrophages 50 μM: 97 ± 4%
[4]
  Cell viability (%) Mouse microglia 50 μM: 100 ± 9%
[5]
  Cell viability (%) HEK293 120 μM: 0 ± 3%
[5]; HEK293, 120 μM
  toxicity at 120 μM (in words): toxic
[6]
  Inhibition of NO production (%) Mouse microglia 10 μM: 58 ± 9%

## C#Cc1ccc2c(c1)C(c1ccccc1F)=NC(C)C(=O)N2C (stereo not shown) [GL-III-24]
[1]
  Inhibition of NO production (%) RAW macrophages 10 μM: 68 ± 8%
[2]
  Cell viability (%) HEPG2 120 μM: 91 ± 12%
[3]
  Cell viability (%) RAW macrophages 50 μM: 100 ± 12%
[4]
  Cell viability (%) Mouse microglia 50 μM: 98 ± 5%
[5]
  Cell viability (%) HEK293 120 μM: 78 ± 6%
[6]
  Inhibition of NO production (%) Mouse microglia 10 μM: 67 ± 12%

## CC(C)c1noc(-c2ncn3c2[C@@H](C)N=C(c2ccccc2F)c2cc(Br)ccc2-3)n1 [GL-IV-01, (R)-5-(8-Bromo-6-(2-fluorophenyl)-4-methyl-4H-benzo[f]imidazo[1,5-a][1,4]diazepin-3-yl)-3-isopropyl-1,2,4-oxadiazole]
[1]; Mus musculus, Macrophage, 24 h
  inhibition at 10 µM: 17 ± 7%
[2]
  Cell viability (%) HEPG2 120 μM: 100 ± 9%
[3]
  Cell viability (%) RAW macrophages 50 μM: 100 ± 9%
[4]
  Cell viability (%) Mouse microglia 50 μM: 100 ± 9%
[5]
  Cell viability (%) HEK293 120 μM: 72 ± 8%
[6]; Mus musculus, Microglia, 24 h
  inhibition at 10 µM: 56 ± 11%

## CC1N=C(c2ccccc2F)c2cc(Cl)ccc2NC1=O (stereo not shown) [GL-III-52]
[1]
  Inhibition of NO production (%) RAW macrophages 10 μM: 2 ± 2%
[2]
  Cell viability (%) HEPG2 120 μM: 81 ± 9%
[3]
  Cell viability (%) RAW macrophages 50 μM: 97 ± 8%
[4]
  Cell viability (%) Mouse microglia 50 μM: 85 ± 8%
[5]
  Cell viability (%) HEK293 120 μM: 73 ± 8%
[6]
  Inhibition of NO production (%) Mouse microglia 10 μM: 57 ± 11%

## CCNC(=O)c1ncn2c1[C@@H](C)N=C(c1ccccc1F)c1cc(Br)ccc1-2 [GL-III-67]
[1]
  Inhibition of NO production (%) RAW macrophages 10 μM: 4 ± 2%
[2]
  Cell viability (%) HEPG2 120 μM: 100 ± 9%
[3]
  Cell viability (%) RAW macrophages 50 μM: 100 ± 7%
[4]
  Cell viability (%) Mouse microglia 50 μM: 85 ± 10%
[5]
  Cell viability (%) HEK293 120 μM: 66 ± 6%
[6]
  Inhibition of NO production (%) Mouse microglia 10 μM: 33 ± 1%

## C#Cc1ccc2c(c1)C(c1ccccc1)=NCc1c(C(=O)OCCCO)ncn1-2 [GL-I-48]
[1]
  Inhibition of NO production (%) RAW macrophages 10 μM: 4 ± 2%
[2]
  Cell viability (%) HEPG2 120 μM: 100 ± 4%
[3]
  Cell viability (%) RAW macrophages 50 μM: 100 ± 12%
[4]
  Cell viability (%) Mouse microglia 50 μM: 78 ± 5%
[5]
  Cell viability (%) HEK293 120 μM: 65 ± 8%
[6]
  Inhibition of NO production (%) Mouse microglia 10 μM: 0 ± 4%

## C#Cc1ccc2c(c1)C(c1ccccc1F)=N[C@@H](C)C(=O)N2 [GL-I-64]
[1]
  Inhibition of NO production (%) RAW macrophages 10 μM: 3 ± 3%
[2]
  Cell viability (%) HEPG2 120 μM: 100 ± 9%
[3]
  Cell viability (%) RAW macrophages 50 μM: 100 ± 5%
[4]
  Cell viability (%) Mouse microglia 50 μM: 81 ± 5%
[5]
  Cell viability (%) HEK293 120 μM: 77 ± 13%
[6]
  Inhibition of NO production (%) Mouse microglia 10 μM: 24 ± 3%

## C#Cc1ccc2c(c1)C(c1ccccc1F)=N[C@H](C)c1c(-c3nc(CC)no3)ncn1-2 [MP-IV-005, (R)-3-ethyl-5-(8-ethynyl-6-(2-fluorophenyl)-4-methyl-4H-benzo[f]imidazo[1,5-a][1,4]diazepin-3-yl)-1,2,4-oxadiazole]
[1]; Mus musculus, Macrophage, 24 h
  inhibition at 10 µM: 5 ± 3%
  inhibition at 50 µM: 59 ± 9%
[2]
  Cell viability (%) HEPG2 120 μM: 98 ± 8%
[3]
  Cell viability (%) RAW macrophages 50 μM: 86 ± 14%
[4]
  Cell viability (%) Mouse microglia 50 μM: 86 ± 13%
[5]
  Cell viability (%) HEK293 120 μM: 68 ± 14%
[6]; Mus musculus, Microglia, 24 h
  inhibition at 10 µM: 45 ± 3%
  inhibition at 50 µM: 89 ± 17%

## C#Cc1ccc2c(c1)C(c1ccccc1F)=NCc1c(C(=O)O)ncn1-2 [GL-II-79]
[1]
  Inhibition of NO production (%) RAW macrophages 10 μM: 0 ± 3%
[2]
  Cell viability (%) HEPG2 120 μM: 100 ± 7%
[3]
  Cell viability (%) RAW macrophages 50 μM: 100 ± 3%
[4]
  Cell viability (%) Mouse microglia 50 μM: 84 ± 5%
[5]
  Cell viability (%) HEK293 120 μM: 91 ± 13%
[6]
  Inhibition of NO production (%) Mouse microglia 10 μM: 44 ± 6%

## CC1N=C(c2ccccn2)c2cc(Br)ccc2NC1=O (stereo not shown) [GL-II-05]
[1]
  Inhibition of NO production (%) RAW macrophages 10 μM: 0 ± 1%
[2]
  Cell viability (%) HEPG2 120 μM: 92 ± 5%
[3]
  Cell viability (%) RAW macrophages 50 μM: 100 ± 11%
[4]
  Cell viability (%) Mouse microglia 50 μM: 88 ± 8%
[5]
  Cell viability (%) HEK293 120 μM: 94 ± 3%
[6]
  Inhibition of NO production (%) Mouse microglia 10 μM: 12 ± 5%

## CC1N=C(c2ccccc2F)c2cc(C#C[Si](C)(C)C)ccc2-n2cnc(-c3cnco3)c21 (stereo not shown) [GL-III-72]
[1]
  Inhibition of NO production (%) RAW macrophages 10 μM: 57 ± 7%
[2]
  Cell viability (%) HEPG2 120 μM: 100 ± 3%
[3]
  Cell viability (%) RAW macrophages 50 μM: 77 ± 4%
[4]
  Cell viability (%) Mouse microglia 50 μM: 100 ± 10%
[5]
  Cell viability (%) HEK293 120 μM: 64 ± 8%
[6]
  Inhibition of NO production (%) Mouse microglia 10 μM: 21 ± 7%

## C#Cc1ccc2c(c1)C(c1ccccn1)=NC(C)C(=O)N2C (stereo not shown) [GL-II-61]
[1]
  Inhibition of NO production (%) RAW macrophages 10 μM: 10 ± 4%
[2]
  Cell viability (%) HEPG2 120 μM: 82 ± 3%
[3]
  Cell viability (%) RAW macrophages 50 μM: 100 ± 8%
[4]
  Cell viability (%) Mouse microglia 50 μM: 91 ± 8%
[5]
  Cell viability (%) HEK293 120 μM: 83 ± 10%
[6]
  Inhibition of NO production (%) Mouse microglia 10 μM: 28 ± 2%

## C#Cc1ccc2c(c1)C(c1ccccn1)=N[C@H](C)c1c(-c3nc(CC)no3)ncn1-2 [GL-III-97]
[1]
  Inhibition of NO production (%) RAW macrophages 10 μM: 6 ± 1%
[2]
  Cell viability (%) HEPG2 120 μM: 100 ± 12%
[3]
  Cell viability (%) RAW macrophages 50 μM: 98 ± 3%
[4]
  Cell viability (%) Mouse microglia 50 μM: 100 ± 4%
[5]
  Cell viability (%) HEK293 120 μM: 54 ± 9%
[6]
  Inhibition of NO production (%) Mouse microglia 10 μM: 11 ± 6%

## C#Cc1ccc2c(c1)C(c1ccccc1)=NCC(=O)N2 [GL-III-59]
[1]
  Inhibition of NO production (%) RAW macrophages 10 μM: 8 ± 1%
[2]
  Cell viability (%) HEPG2 120 μM: 100 ± 2%
[3]
  Cell viability (%) RAW macrophages 50 μM: 100 ± 3%
[4]
  Cell viability (%) Mouse microglia 50 μM: 96 ± 4%
[5]
  Cell viability (%) HEK293 120 μM: 100 ± 4%
[6]
  Inhibition of NO production (%) Mouse microglia 10 μM: 43 ± 7%

## C#Cc1ccc2c(c1)C(c1ccccc1F)=N[C@H](C)C(=O)N2 [GL-I-62]
[1]
  Inhibition of NO production (%) RAW macrophages 10 μM: 3 ± 2%
[2]
  Cell viability (%) HEPG2 120 μM: 89 ± 10%
[3]
  Cell viability (%) RAW macrophages 50 μM: 100 ± 3%
[4]
  Cell viability (%) Mouse microglia 50 μM: 92 ± 7%
[5]
  Cell viability (%) HEK293 120 μM: 79 ± 7%
[6]
  Inhibition of NO production (%) Mouse microglia 10 μM: 13 ± 7%

## C#Cc1ccc2c(c1)C(c1ccccc1F)=NC(C)c1c(C(=S)NC)ncn1-2 (stereo not shown) [GL-III-84]
[1]
  Inhibition of NO production (%) RAW macrophages 10 μM: 10 ± 5%
[2]
  Cell viability (%) HEPG2 120 μM: 100 ± 10%
[3]
  Cell viability (%) RAW macrophages 50 μM: 100 ± 12%
[4]
  Cell viability (%) Mouse microglia 50 μM: 96 ± 8%
[5]
  Cell viability (%) HEK293 120 μM: 64 ± 5%
[6]
  Inhibition of NO production (%) Mouse microglia 10 μM: 32 ± 4%

## C#Cc1ccc2c(c1)C(c1ccccc1F)=NC(C)c1c(C(=S)N(C)C)ncn1-2 (stereo not shown) [GL-III-85]
[1]
  Inhibition of NO production (%) RAW macrophages 10 μM: 0 ± 2%
[2]
  Cell viability (%) HEPG2 120 μM: 100 ± 11%
[3]
  Cell viability (%) RAW macrophages 50 μM: 100 ± 10%
[4]
  Cell viability (%) Mouse microglia 50 μM: 84 ± 12%
[5]
  Cell viability (%) HEK293 120 μM: 70 ± 12%
[6]
  Inhibition of NO production (%) Mouse microglia 10 μM: 34 ± 8%
